Experimental data as given in patent US11723365B2, “Method for controlling PPO resistant weeds” (BASF SE, priority 2016, dated 2023).

Experiments:
Format in all cases: in vivo
[1] = test system: Amaranthus tamariscinus (common waterhemp, AMATA), sensitive biotype (w.1); test: greenhouse experiment, weed control, sensitive common waterhemp (w.1)
From the text: (§1) The culture containers used were plastic flowerpots containing loamy sand with approximately 3.0% of humus as the substrate. The seeds of the test plants were sown separately for each species and/or resistant biotype. For the pre-emergence treatment, the active ingredients, which had been suspended or emulsified in water, were applied directly after sowing by means of finely distributing nozzles. The containers were irrigated gently to promote germination and growth and subsequently covered with transparent plastic hoods until the plants had rooted. This cover caused uniform germination of the test plants, unless this had been impaired by the active ingredients. For the post-emergence treatment, the test plants were first grown to a height of 3 to 15 cm, depending on the plant habit, and only then treated with the active ingredients which had been suspended or emulsified in water. For this purpose, the test plants were either sown directly and grown in the same containers, or they were first grown separately as seedlings and transplanted into the test containers a few days prior to treatment. Depending on the species, the plants were kept at 10-25° C. or 20-35° C., respectively. The test period extended over 2 to 4 weeks. During this time, the plants were tended, and their response to the individual treatments was evaluated. The evaluation was carried out by using a scale from 0 to 100. 100 means no emergence of the plants or complete destruction of at least the above-ground parts, and 0 means no damage, or normal course of growth.
(§2) The plants used in a first greenhouse experiment were of the following species and biotype: […]

[2] = test system: Amaranthus tamariscinus (common waterhemp, AMATA), PPO resistant biotype 3 containing the ΔG210 mutation (w.5); test: another greenhouse experiment, weed control, PPO resistant biotype 3 (w.5)
From the text: as §1, with “100 means no emergence of the plants or complete destruction of at least the above-ground parts, and 0 means no damage, or normal course of growth.” left out

[3] = test system: Amaranthus tamariscinus (common waterhemp, AMATA), PPO resistant biotype 2 (w.3); test: greenhouse experiment, weed control, PPO resistant biotype 2 (w.3); conditions: scale 0 to 100
From the text: as §1, §2

[4] = test system: Amaranthus tamariscinus (common waterhemp, AMATA), PPO resistant biotype 1 (w.2); test: greenhouse experiment, weed control, PPO resistant biotype 1 (w.2); conditions: for activity on sensitive and resistant weeds (in words): summary of table 2: sensitive (w.1) and resistant weeds (w.2, w.3); for Weed control (%) w.2: scale 0 to 100
From the text: as §1, §2

[5] = test system: Amaranthus tamariscinus (common waterhemp, AMATA), sensitive biotype (w.4); test: another greenhouse experiment, weed control, sensitive common waterhemp (w.4); conditions: use rate 4 g/ha; scale 0 to 100
From the text: as §1, with “100 means no emergence of the plants or complete destruction of at least the above-ground parts, and 0 means no damage, or normal course of growth.” left out

[6] = test system: Amaranthus tamariscinus (common waterhemp, AMATA), PPO resistant biotype 4 containing the ΔG210 mutation (w.6); test: another greenhouse experiment, weed control, PPO resistant biotype 4 (w.6); conditions: use rate 4 g/ha; scale 0 to 100
From the text: as §1, with “100 means no emergence of the plants or complete destruction of at least the above-ground parts, and 0 means no damage, or normal course of growth.” left out

[7] = use rate 2 g/ha, scale 0 to 100
[8] = use rate 4 g/ha, scale 0 to 100 (100 = complete destruction, 0 = no damage)

Row | SMILES | Weed control (%) w.1 [1, 7] [%] | Weed control (%) w.1 [1, 8] [%] | activity on sensitive and resistant weeds (in words) ([2]; summary of table 3: sensitive (w.4) and resistant weeds (w.5, w.6) containing the ΔG210 mutation) | Weed control (%) w.5 ([2]; use rate 4 g/ha, scale 0 to 100) [%] | Weed control (%) w.3 ([3]; use rate 2 g/ha) [%] | Weed control (%) w.3 ([3]; use rate 4 g/ha) [%] | activity on sensitive and resistant weeds (in words) [4] | Weed control (%) w.2 ([4]; use rate 2 g/ha) [%] | Weed control (%) w.2 ([4]; use rate 4 g/ha) [%] | Weed control (%) w.4 [5] [%] | Weed control (%) w.6 [6] [%]
1 | COC(=O)CCNC(=O)C(C)Sc1cc(-n2c(=O)cc(C(F)(F)F)n(C)c2=O)c(F)cc1Cl (stereo not drawn) [(I).1, tiafenacil] | 90 | 99 | very good activity on both sensitive (w.4) and resistant weeds (w.5, w.6) | 95 | 78 | 85 | very good activity on both sensitive (w.1) and resistant weeds (w.2, w.3) | 83 | 91 | 92 | 88
2 | C#CCOc1cc(-n2nc3n(c2=O)CCCC3)c(Cl)cc1Cl [azafenidin, reference compound] | 95 | 98 | – | – | 70 | 72 | much weaker control of resistant in comparison to sensitive biotypes | 67 | 73 | – | –
